From publication PMC6259748, “Selection of Peptides Targeting Helix 31 of Bacterial 16S Ribosomal RNA by Screening M13 Phage-Display Libraries” (Molecules, 2011) come the findings set out here.

The test system of assay [1] is wild-type modified h31. The assay can be described thus: surface plasmon resonance (SPR), modified h31. Format: binding, E. coli. Conditions: for ka (association rate constant) / kd (dissociation rate constant): 1:1 Langmuir, 150 mM NaCl, 50 μL/min, 25 °C, CM5 chip; for ka (association rate constant): 10 mM Tris·HCl, 10 mM MgCl2, 1 mM DTT, 0.005% P20, pH 7.5; for kd (dissociation rate constant): pH 7.5, 10 mM MgCl2. The procedure:
Modified h31 was labeled with biotin in order to immobilize the RNA onto a surface and determine the kinetics of peptide binding by surface plasmon resonance (SPR). […] In order to enhance the signal-to-noise ratio, a GFP-protein-fused peptide, TYLPWPA-GFP, was generated and used as the analyte.
Biotinylated, modified h31 RNA was immobilized onto a streptavidin-coated CM5 chip and differing concentrations of TYLPWPA-GFP (10–100 µM) were injected as the analyte. A range of salt concentrations, detergent levels, pH conditions, and flow rates were tested, since these factors affect the peptide-RNA complex formation (data not shown). The apparent dissociation constants were determined under the following optimized conditions: 10 mM Tris·HCl, 150 mM NaCl, 10 mM MgCl2, 1 mM dithiothreitol (DTT), 0.005% (v/v) P20 at pH 7.5 as the running buffer at a flow rate of 50 μL/min.
All immobilization and subsequent binding studies were performed using a BIAcore 2000 instrument set at a temperature of 25 °C. Standard dextran surface BIAcore sensorchips (Sensor chip CM5) were purchased from BIAcore (GE Healthcare, Piscataway, NJ). Standard desorb and sanitize routines were performed according to the BIAcore guidelines before docking a new CM5 sensor chip. All buffers were filtered through sterile 0.2 μm nylon membranes (Millipore™) under vacuum. Before derivatizing the flow cells with streptavidin, the CM5 sensor chip was pre-conditioned using three successive 10 μL injections of chip-preparation solution (10 mM NaOH, 500 mM NaCl) at 100 μL/min, followed by a normalization routine using BIAnormalizing solution (40% glycerol). Streptavidin derivatization was performed according to standard procedures.
Prior to immobilization, the solution of biotinylated RNA in HBS-EP buffer (10 mM HEPES, 3 mM EDTA, 150 mM NaCl, 0.005% P20 at pH 7.4) was renatured by heating to 90 °C for 2 min, cooling gradually to room temperature, and placing on ice. Flow cells were functionalized by injecting 30 μL of RNA at a time using the MANUAL INJECT command at a flow rate of 10 μL/min, until the desired immobilization level was reached. One of the flow cells was used to immobilize RNA, while the adjacent cell remained unmodified to serve as a blank-control for matrix effects. Levels of RNA captured were calculated by subtracting […] for each flow cell. After RNA immobilization, both flow cells were blocked with 100 μL of 1 mg/mL biotin at 5 μL/min.
For the SPR experiments, the peptides were cloned into plasmid pBacEmGH (Cunningham Lab, to be described elsewhere) under transcriptional regulation of a PBAD promoter. Upon induction with L-arabinose, the resulting construct produces a fusion protein in which the peptide is fused to the N-terminus of EmGFP containing a C-terminus 6 x His affinity tag (PEP-EmGFP-6 x His).
Peptide samples were prepared by serial dilutions from stock solutions. Dilutions were made in running buffer (10 mM Tris·HCl, 150 mM NaCl, 10 mM MgCl2, 1 mM DTT, 0.005% (v/v) P20 at pH 7.5). All procedures for binding were automated, as optimized methods using repetitive cycles of sample injection and regeneration. Typically, running buffer was injected for ~30 min prior to experiment to establish a stable baseline value. Peptide solutions (200 μL) were injected at a kinetic flow rate of 50 μL/min, using the KINJECT command. All peptide samples were injected from 7 mm plastic vials (BIAcore) that were capped with pierceable plastic-crimp-caps to minimize carry-over and sample evaporation. Samples were injected in order of increasing concentration. The surface was regenerated using 150 μL of 500 mM NaCl. The data were fit to a 1:1 binding Langmuir model using BIAevaluation 3.0 software. […]
(In SPR one partner is held on a chip, and binding of the other changes the refractive index at the surface.)

Assay [2] concerns unmodified h31. Briefly: surface plasmon resonance (SPR), unmodified h31. The class given is binding, E. coli. Conditions: analyte 1 μM; ~200 fmoles RNA immobilized; injection time 1 min. The procedure:
All immobilization and subsequent binding studies were performed using a BIAcore 2000 instrument set at a temperature of 25 °C. Standard dextran surface BIAcore sensorchips (Sensor chip CM5) were purchased from BIAcore (GE Healthcare, Piscataway, NJ). Standard desorb and sanitize routines were performed according to the BIAcore guidelines before docking a new CM5 sensor chip. All buffers were filtered through sterile 0.2 μm nylon membranes (Millipore™) under vacuum. […]
Prior to immobilization, the solution of biotinylated RNA in HBS-EP buffer (10 mM HEPES, 3 mM EDTA, 150 mM NaCl, 0.005% P20 at pH 7.4) was renatured by heating to 90 °C for 2 min, cooling gradually to room temperature, and placing on ice. […] Levels of RNA captured were calculated by subtracting response units after injection from response units before injection for each flow cell. […]
Kinetic constants were determined by integration of the experimental data using the differential rate equation dRU/dt = ka·C·(RUmax-RU)-kd·RU to obtain ka and kd values simultaneously (RU = observed response, RUmax = maximum response upon saturation, C = analyte concentration, ka = association rate constant, kd = dissociation rate constant). […]

Assay [3] has as its target wild-type modified h31. The assay can be described thus: surface plasmon resonance (SPR), modified h31. To be noted: SPR kinetic analysis, 1:1 Langmuir; pH 7.5; 150 mM NaCl, 10 mM MgCl2; 50 μL/min; 25 °C; analyte 0–1 μM. Format: binding, E. coli.
The test system of assay [4] is His(6)-EmGFP-S11 protein. The assay can be described thus: bead control with S11-emGFP protein (no ribosomes). Format: binding, E. coli. To be noted: purified His(6)-EmGFP-S11 added to peptide on beads. The procedure:
The fluorescence intensity of each set of beads containing the selected peptides was quantified.
(§1) Fluorescently labeled 30S subunits were isolated by sucrose gradient centrifugation in 5 mM Mg^2+ [82]. For control experiments, His(6)-EmGFP-S11 was purified using IMAC resin (Bio-Rad, Hercules, CA) and the fluorescence was assayed using beads carrying peptides with ribosomes, beads carrying peptides with His(6)-EmGFP-S11 (no ribosomes) and beads only with ribosomes (no peptides).
(§2) The fluorescent ribosomes were incubated in binding buffer B (20 mM HEPES, pH 7.3, 10 mM MgCl2, 100 mM KCl) at 37 °C for 30 min. Next, 25 pmoles of ribosome solution was added to each peptide, and the mixture was incubated overnight at 4 °C with agitation. Unbound ribosomes were removed by two 450 μL washes with binding buffer B and centrifugation at 6,000 rpm for 1–2 min. The beads were resuspended in 40 μL of binding buffer B for microscope screening and kept on ice until scanning. The beads (20 μL) were spread on microscope slides for scanning (Olympus 1X71 microscope, TH4 100 Olympus lamp, Olympus UCMAD 3 camera, 20× magnification). An average of two pictures were taken per slide, eliminating beads presenting uneven swelling and cracks.

Assay [5] has as its system translation of green fluorescent protein (GFP). The assay can be described thus: coupled in vitro transcription-translation inhibition assay (GFP). Format: biochemical, E. coli. The procedure:
A cell-free translation assay was used to test the potential inhibitory effects of the peptides on protein synthesis. Different concentrations of peptides were added to E. coli S30 extracts and the extent of inhibition was monitored by the measurement of green fluorescent protein (GFP) translation.
The inhibitory effects of selected peptides (DIRTQRE, CVRPFAL, FVRPFAL, TLWDLIP and TYLPWPA) on cellular processes were determined by in vitro coupled transcription-translation inhibition assay. The PURExpress™ in vitro protein synthesis kit #E6800S from New England Biolabs (Beverly, MA) was used for this purpose. A DNA template for GFP (pRSETEmGFP plasmid, Invitrogen) was employed at a concentration of 10 µg/mL in a 15 µL of reaction volume. Different concentrations of peptides were added, ranging from 300 µM to 2 mM. The DNA template was added only after mixing of the peptides or streptomycin so that they could bind to their target region first. For the control, streptomycin was added at a final concentration of 300 µM. The reaction was incubated in 384-well, Costar, clear-well, black plates and in situ incubated at 37 °C in a Gemini XPS microplate spectrofluorometer (Molecular Devices, Sunnyvale, CA) and the amount of GFP produced was monitored at different time intervals from 0 min to 2 h by fluorescence (excitation at 487 nm, emission at 509 nm).

The subject of assay [6] is GFP-S11-labeled 30S subunits. The assay can be described thus: ribosome-binding assay on Tentagel beads. Further details: species or system E. coli. The procedure: The purpose of this experiment was to determine whether the selected peptides have affinity for bacterial ribosomes. The binding affinities of various peptides could also be compared by this method. Small ribosomal subunits, 30S, labeled with GFP on ribosomal protein S11 were added to peptides covalently attached to Tentagel beads (Figure 4A). […] The peptides were chemically synthesized on Tentagel beads with their N-termini exposed. Increasing concentrations of GFP-tagged 30S subunits were added to the Tentagel-bound peptides and unbound 30S subunits were removed by washing. Relative fluorescence intensity of the 30S subunits bound to the peptides on bead was determined by imaging on a fluorescence microscope, with the assumption that the level of fluorescence on the beads was proportional to the affinity of the ribosome for the peptide sequence.
Four peptides isolated from the phage-display experiment, […], DIRTQRE, TLWDLIP, and […], were synthesized on Tentagel (Rapp Polymer, Tübingen, Germany) beads using standard Fmoc synthesis. The beads were stored in DMF until use. The beads were then washed three times with 450 μl of water, and three times with 450 μL of the binding buffer B (binding buffer: 20 mM HEPES, pH 7.3, 10 mM MgCl2, 100 mM KCl), using 0.45 μm MWCO Nanosep (Pall Corporation, Ann Arbor, MI). The beads were then centrifuged at 6,000 rpm for 1–2 min.
as §1, §2

“Also recorded” adds a separate entry of the source.

Regarding CVRPFAL-GFP, in assay [1], the “ka (association rate constant)” value is “(120 ± 1) × 10^2 M^-1s^-1” and the “kd (dissociation rate constant)” value is “(2.6 ± 0.02) × 10^-3 s^-1”. Also, the “binding interaction with unmodified h31” value in assay [2] was “did not reveal any binding interactions; also recorded: No binding interaction was detected”.

With TLWDLIP-GFP, in assay [1], the “ka (association rate constant)” value was “(93 ± 2) × 10^2 M^-1s^-1” and the “kd (dissociation rate constant)” value was “(3.1 ± 0.3) × 10^-3 s^-1”. Besides, the “KD (kd/ka)” value in assay [3] is given as 330 ± 7 nM.

For “TLWDLIP [heptapeptide selected against modified h31, with and without counter selection]”, the “binding affinity to modified h31” value in assay [1] (in words, comparable to known antibiotics targeting 16S rRNA) is listed as “high nM”. For the same substance, the “fluorescence on beads with S11-emGFP protein” value in assay [4] is given as “did not show any fluorescence; also recorded: fluorescence was not observed”. Further, the “inhibition of in vitro protein synthesis” value in assay [5] (cell-free translation, summary statement) was “inhibit in vitro protein synthesis”. Besides, in assay [5] (peptides at 1 mM, 37 °C, GFP fluorescence), the “order of translation inhibition by peptides (from high to low)” value is reported as “CVRPFAL ≈ FVRPFAL > TLWDLIP > TYLPWPA > DIRTQRE”. For the same substance, the “order of binding preference by the 30S subunits (from high to low)” value in assay [6] (Tentagel beads, fluorescence microscopy, pH 7.3) was “TYLPWPA > CVRPFAL ≈ TLWDLIP > DIRTQRE”. Further, the “fluorescence on beads after 30S binding” value in assay [6] (peptide on Tentagel beads, 30S subunits overnight at 4 °C, 20 mM HEPES, pH 7.3, 10 mM MgCl2, 100 mM KCl, duplicate) was “Fluorescence is observed”.
